# Experimental data: US12545640B2, “Substituted 6,7-dihydro-5H-benzo[7]annulene compounds, processes for their preparation and therapeutic uses thereof” (SANOFI, priority 2019, dated 2026)
# Target: T1, ERα (Homo sapiens, UniProt P03372)
# T1 construct: host or cells: MCF7 cells
# T1 sequence (P03372 1-595): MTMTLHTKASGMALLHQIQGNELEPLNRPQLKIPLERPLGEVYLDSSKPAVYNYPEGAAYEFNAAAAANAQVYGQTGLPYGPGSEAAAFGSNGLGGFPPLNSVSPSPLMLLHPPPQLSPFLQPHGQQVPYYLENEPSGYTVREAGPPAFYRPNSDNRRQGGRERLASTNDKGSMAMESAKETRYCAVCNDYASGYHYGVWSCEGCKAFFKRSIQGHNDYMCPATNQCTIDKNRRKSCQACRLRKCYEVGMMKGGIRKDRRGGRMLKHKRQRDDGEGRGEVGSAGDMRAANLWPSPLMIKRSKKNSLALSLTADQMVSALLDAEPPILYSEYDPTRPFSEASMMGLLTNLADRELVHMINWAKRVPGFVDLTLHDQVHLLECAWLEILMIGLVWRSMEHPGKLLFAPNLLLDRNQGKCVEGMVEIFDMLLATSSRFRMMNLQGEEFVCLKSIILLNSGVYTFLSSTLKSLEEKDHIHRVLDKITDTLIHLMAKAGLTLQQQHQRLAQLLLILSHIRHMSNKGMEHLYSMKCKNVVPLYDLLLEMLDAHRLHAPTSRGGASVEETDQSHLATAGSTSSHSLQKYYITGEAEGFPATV
# Test: Estrogen receptor degradation activity: breast cancer cell ERα in cell western assay (MCF7 cells)
# Format: cell-based
# Settings: 4 hours, final concentrations ranging from 0.3-0.0000018 μM, relative to fulvestrant 0.1 μM positive control
# Method: Test: Estrogen Receptor Degradation Activity
# Said test involves measuring the in vitro degradation activity of the compounds of the invention.
# The measurements of the degradation activities were made using a breast cancer cell ERα in cell western assay as described hereunder.
# MCF7 cells (ATCC) were seeded in 384 wells microplate (collagen coated) at a concentration of 10000 cells/30 μL, per well in red phenol free MEM alpha medium (invitrogen) containing 5% charcoal dextran striped FBS. The following day, 9 points serial 1:5 dilution of each compound was added to the cells in 2.5 μL at final concentrations ranging either from 3-0.000018 μM (column «% Degradation at 3 μM in table 2) or from 0.3-0.0000018 μM (column «% Degradation at 0.3 μM in table 2), or 0.1 μM for fulvestrant (using as positive control). At 4 hours post compound addition the cells were fixed by adding 25 μL of formalin (final concentration 5% formalin containing 0.1% triton) for 10 minutes at room temperature and then washed twice with PBS. Then, 50 μL of LI-COR blocking buffer containing 0.1% Triton was added to plate for 30 minutes at room temperature. LI-COR blocking buffer was removed and cells were incubated overnight at cold room with 50 μL anti-ER rabbit monoclonal antibody (Thermo scientific MA1-39540) diluted at 1:1000 in LI-COR blocking buffer containing 0.1% tween-20. Wells which were treated with blocking buffer but no antibody were used as background control. Wells were washed twice with PBS (0.1% tween-20) and incubated at 37° C. for 60 minutes in LI-COR (0.1% tween-20) containing goat anti-rabbit antibody Alexa 488 (1:1000) and Syto-64 a DNA dye ([…]). Cells were then washed 3 times in PBS and scanned in ACUMEN explorer (TTP-Labtech). Integrated intensities in the green fluorescence and red fluorescence were measured to determine the levels of ERα and DNA respectively.
row,SMILES,% Degradation At 0.3 μM
1,"CC(C)(C)C(=O)Nc1ccc2c(c1)CCCC(c1ccc(Cl)cc1Cl)=C2c1ccc(O[C@H]2CCN(CCCF)C2)cc1 [Example 62, (S)—N-(8-(2,4-dichlorophenyl)-9-(4-((1-(3-fluoropropyl)pyrrolidin-3-yl)oxy)phenyl)-6,7-dihydro-5H-benzo[7]annulen-3-yl)pivalamide]",68%
2,"OC(c1ccc2c(c1)CCCC(c1cccc(F)c1Cl)=C2c1ccc(O[C@H]2CCN(CCCF)C2)cc1)C(F)(F)F (stereo partly drawn) [Example 65, 1-(8-(2-chloro-3-fluorophenyl)-9-(4-(((S)-1-(3-fluoropropyl)pyrrolidin-3-yl)oxy)phenyl)-6,7-dihydro-5H-benzo[7]annulen-3-yl)-2,2,2-trifluoroethan-1-ol]",90%
3,"O=C(Nc1ccc2c(c1)CCCC(c1ccc(Cl)cc1Cl)=C2c1ccc(O[C@H]2CCN(CCCF)C2)cc1)C1(F)CC1 [Example 66, (S)—N-(8-(2,4-dichlorophenyl)-9-(4-((1-(3-fluoropropyl)pyrrolidin-3-yl)oxy)phenyl)-6,7-dihydro-5H-benzo[7]annulen-3-yl)-1-fluorocyclopropane-1-carboxamide]",74%

# Same assay, conditions: 4 hours, final concentrations ranging from 3-0.000018 μM, relative to fulvestrant 0.1 μM positive control
row,% Degradation At 3 μM,SMILES
1,89%,"COC(=O)c1ccc(-c2ccc3c(c2)CCCC(c2ccc(Cl)cc2Cl)=C3c2ccc(O[C@H]3CCN(CCCF)C3)cc2)cc1 [Example 56, Methyl (S)-4-(8-(2,4-dichlorophenyl)-9-(4-((1-(3-fluoropropyl)pyrrolidin-3-yl)oxy)phenyl)-6,7-dihydro-5H-benzo[7]annulen-3-yl)benzoate]"
2,87%,"COC(=O)c1cccc(-c2ccc3c(c2)CCCC(c2ccc(Cl)cc2Cl)=C3c2ccc(O[C@H]3CCN(CCCF)C3)cc2)c1 [Example 57, Methyl (S)-3-(8-(2,4-dichlorophenyl)-9-(4-((1-(3-fluoropropyl)pyrrolidin-3-yl)oxy)phenyl)-6,7-dihydro-5H-benzo[7]annulen-3-yl)benzoate]"
3,77%,"O=C1CCCN1c1ccc2c(c1)CCCC(c1ccc(Cl)cc1Cl)=C2c1ccc(O[C@H]2CCN(CCCF)C2)cc1 [Example 58, (S)-1-(8-(2,4-dichlorophenyl)-9-(4-((1-(3-fluoropropyl)pyrrolidin-3-yl)oxy)phenyl)-6,7-dihydro-5H-benzo[7]annulen-3-yl)pyrrolidin-2-one]"
4,91%,"O=C(NNC(=S)n1ccnc1)c1ccc2c(c1)CCCC(c1ccc(Cl)cc1Cl)=C2c1ccc(O[C@H]2CCN(CCCF)C2)cc1 [Example 59, (S)-8-(2,4-dichlorophenyl)-9-(4-((1-(3-fluoropropyl)pyrrolidin-3-yl)oxy)phenyl)-N′-(1H-imidazole-1-carbonothioyl)-6,7-dihydro-5H-benzo[7]annulene-3-carbohydrazide]"
5,74%,"O=C(Nc1ccc2c(c1)CCCC(c1ccc(Cl)cc1Cl)=C2c1ccc(O[C@H]2CCN(CCCF)C2)cc1)C1CC1 [Example 60, (S)—N-(8-(2,4-dichlorophenyl)-9-(4-((1-(3-fluoropropyl)pyrrolidin-3-yl)oxy)phenyl)-6,7-dihydro-5H-benzo[7]annulen-3-yl)cyclopropanecarboxamide]"
6,76%,"Nc1nc(-c2ccc3c(c2)CCCC(c2ccc(Cl)cc2Cl)=C3c2ccc(O[C@H]3CCN(CCCF)C3)cc2)cs1 [Example 61, (S)-4-(8-(2,4-dichlorophenyl)-9-(4-((1-(3-fluoropropyl)pyrrolidin-3-yl)oxy)phenyl)-6,7-dihydro-5H-benzo[7]annulen-3-yl)thiazol-2-amine]"

# Second part, the molecule before the results:
row,SMILES,% Degradation At 3 μM
1,"O=c1[nH]c(-c2ccc3c(c2)CCCC(c2ccc(Cl)cc2Cl)=C3c2ccc(O[C@H]3CCN(CCCF)C3)cc2)ns1 [Example 37, (S)-3-(8-(2,4-dichlorophenyl)-9-(4-((1-(3-fluoropropyl)pyrrolidin-3-yl)oxy)phenyl)-6,7-dihydro-5H-benzo[7]annulen-3-yl)-1,2,4-thiadiazol-5(4H)-one]",98%
2,"O=C1OCCN1c1ccc2c(c1)CCCC(c1ccc(Cl)cc1Cl)=C2c1ccc(O[C@H]2CCN(CCCF)C2)cc1 [Example 40, (S)-3-(8-(2,4-dichlorophenyl)-9-(4-((1-(3-fluoropropyl)pyrrolidin-3-yl)oxy)phenyl)-6,7-dihydro-5H-benzo[7]annulen-3-yl)oxazolidin-2-one]",66%
3,"O=C1OCCN1c1ccc(C2=C(c3ccc(O[C@H]4CCN(CCCF)C4)cc3)c3ccc(N4CCOC4=O)cc3CCC2)c(Cl)c1 [Example 41, (S)-3-(8-(2-chloro-4-(2-oxooxazolidin-3-yl)phenyl)-9-(4-((1-(3-fluoropropyl)pyrrolidin-3-yl)oxy)phenyl)-6,7-dihydro-5H-benzo[7]annulen-3-yl)oxazolidin-2-one]",74%
4,"O=C1NC(=O)C(c2ccc3c(c2)CCCC(c2ccc(Cl)cc2Cl)=C3c2ccc(O[C@H]3CCN(CCCF)C3)cc2)N1 (stereo partly drawn) [Example 43, 5-(8-(2,4-dichlorophenyl)-9-(4-(((S)-1-(3-fluoropropyl)pyrrolidin-3-yl)oxy)phenyl)-6,7-dihydro-5H-benzo[7]annulen-3-yl)imidazolidine-2,4-dione]",95%
5,"CON(C)C(=O)c1ccc2c(c1)CCCC(c1ccc(Cl)cc1Cl)=C2c1ccc(O[C@H]2CCN(CCCF)C2)cc1 [Example 44, (S)-8-(2,4-dichlorophenyl)-9-(4-((1-(3-fluoropropyl)pyrrolidin-3-yl)oxy)phenyl)-N-methoxy-N-methyl-6,7-dihydro-5H-benzo[7]annulene-3-carboxamide]",50%
6,"FCCCN1CC[C@H](Oc2ccc(C3=C(c4ccc(Cl)cc4Cl)CCCc4cc(-c5n[nH]c(=S)o5)ccc43)cc2)C1 [Example 45, (S)-5-(8-(2,4-dichlorophenyl)-9-(4-((1-(3-fluoropropyl)pyrrolidin-3-yl)oxy)phenyl)-6,7-dihydro-5H-benzo[7]annulen-3-yl)-1,3,4-oxadiazole-2(3H)-thione]",96%
7,"CC(=N)Nc1ccc2c(c1)CCCC(c1ccc(Cl)cc1Cl)=C2c1ccc(O[C@H]2CCN(CCCF)C2)cc1 [Example 46, (S)—N-(8-(2,4-dichlorophenyl)-9-(4-((1-(3-fluoropropyl)pyrrolidin-3-yl)oxy)phenyl)-6,7-dihydro-5H-benzo[7]annulen-3-yl)acetimidamide]",95%
8,"O=C(Nc1ccc2c(c1)CCCC(c1ccc(Cl)cc1Cl)=C2c1ccc(O[C@H]2CCN(CCCF)C2)cc1)C(F)(F)F [Example 47, (S)—N-(8-(2,4-dichlorophenyl)-9-(4-((1-(3-fluoropropyl)pyrrolidin-3-yl)oxy)phenyl)-6,7-dihydro-5H-benzo[7]annulen-3-yl)-2,2,2-trifluoroacetamide]",78%
9,"CC(=O)Nc1ccc2c(c1)CCCC(c1ccc(Cl)cc1Cl)=C2c1ccc(O[C@H]2CCN(CCCF)C2)cc1 [Example 48, (S)—N-(8-(2,4-dichlorophenyl)-9-(4-((1-(3-fluoropropyl)pyrrolidin-3-yl)oxy)phenyl)-6,7-dihydro-5H-benzo[7]annulen-3-yl)acetamide]",70%
10,"FCCCN1CC[C@H](Oc2ccc(C3=C(c4ccc(Cl)cc4Cl)CCCc4cc(-c5cc[nH]n5)ccc43)cc2)C1 [Example 51, (S)-3-(8-(2,4-dichlorophenyl)-9-(4-((1-(3-fluoropropyl)pyrrolidin-3-yl)oxy)phenyl)-6,7-dihydro-5H-benzo[7]annulen-3-yl)-1H-pyrazole]",81%
11,"O=C(O)c1cccc(-c2ccc3c(c2)CCCC(c2ccc(Cl)cc2Cl)=C3c2ccc(O[C@H]3CCN(CCCF)C3)cc2)c1 [Example 55, (S)-3-(8-(2,4-dichlorophenyl)-9-(4-((1-(3-fluoropropyl)pyrrolidin-3-yl)oxy)phenyl)-6,7-dihydro-5H-benzo[7]annulen-3-yl)benzoic acid]",84%
